{"source": "patent US20250345292A1", "about": "“COMBINATION OF ALBUTEROL AND BUDESONIDE FOR THE TREATMENT OF ASTHMA” (priority 2022, published 2025)", "key": {"[1]": {"system": "patients with uncontrolled moderate-to-severe asthma", "assay": "Phase 3 clinical trial, as-needed albuterol-budesonide fixed dose combination vs. albuterol alone: efficacy and study medication use", "assay_type": "in vivo, human", "conditions": "for % of patients with a severe exacerbation / number of patients with a severe exacerbation: as-needed use"}, "[2]": {"system": "patients with mild-to-moderate asthma", "assay": "Phase 3 clinical trial, albuterol-budesonide combination vs. mono-components, four times daily for 12 weeks", "assay_type": "in vivo, human", "conditions": "for Change from baseline in FEV1 AUC0-6 over 12 weeks, LSM / Change from baseline in trough FEV1 over 12 weeks, LSM: four times daily", "procedure": "A Phase 3 clinical study evaluated contributions of the mono-components albuterol and budesonide to albuterol/budesonide combination efficacy in patients with mild-to-moderate asthma ≥4 years. Patients≥12 years were randomized 1:1:1:1:1 to four-times-daily albuterol/budesonide 180/160 or 180/80 μg, albuterol 180 μg, budesonide 160 μg or placebo for 12 weeks; patients 4-11 years were not included in this analysis set.\nIn the study, 1001 patients with mild-to-moderate asthma were randomized 1:1:1:1:1 to ABD 180/160 μg or 180/80 μg, albuterol (A) 180 μg, budesonide (B) 160 μg, or placebo, all four times daily (QID), for 12 weeks. […] Secondary endpoints included time to onset, as measured by 15% improvement in FEV1 within 30 minutes on Day 1, and duration of effect, and Asthma Control Questionnaire-7 (ACQ-7) responder (≥0.5-point reduction from baseline) analysis at Week 12."}, "[3]": {"system": "patients with uncontrolled moderate-to-severe asthma", "conditions": "human, in vivo, 180 μg", "description": "(§1) Safety endpoints (adverse events [AEs] and serious adverse events [SAEs]) were assessed from date of informed consent/assent through the safety follow-up.\n(§2) All randomized patients who received any amount of study drug, classified by the study medication they were randomized to, were included in the efficacy analyses comparing albuterol-budesonide 180/80-μg with albuterol. […] All patients receiving any amount of randomized study medication, and classified by the study medication they actually received, were included for all safety analyses."}, "[4]": {"system": "patients with uncontrolled moderate-to-severe asthma", "assay": "Phase 3 clinical trial, albuterol-budesonide FDC vs. albuterol alone: safety endpoints (adverse events)", "description": "as §1, §2"}, "[5]": {"conditions": "comparison 180/80-μg versus albuterol, all patients"}, "[6]": {"conditions": "comparison 180/160-μg versus albuterol, excludes children"}, "[7]": {"conditions": "comparison albuterol-budesonide 180/80-μg versus albuterol, all patients"}, "[8]": {"conditions": "comparison albuterol-budesonide 180/160-μg versus albuterol, excludes children (albuterol n=1,014)"}, "[9]": {"conditions": "vs placebo, full analysis set ≥12 years"}, "[10]": {"conditions": "AE in ≥2% of patients in any group"}, "[11]": {"conditions": "treatment-related, investigator-assessed AE"}}, "data": [{"smiles": "CC(C)(C)NCC(O)c1ccc(O)c(CO)c1", "note": "(stereo not shown) [albuterol 180-μg, 4-(2-(tert-butylamino)-1-hydroxyethyl)-2-(hydroxymethyl) phenol]", "values": [{"measurement": "Annualized severe exacerbation rate", "setting": "[1]; [5]", "value": 0.61}, {"measurement": "Annualized total systemic glucocorticoid exposure (prednisone equivalents), median", "setting": "[1]; [5]", "value": 0.0, "unit": "mg/year"}, {"measurement": "Annualized severe exacerbation rate", "setting": "[1]; [6]", "value": 0.59}, {"measurement": "Annualized total systemic glucocorticoid exposure (prednisone equivalents), median", "setting": "[1]; [6]", "value": 0.0, "unit": "mg/year"}, {"measurement": "% of patients with a severe exacerbation", "setting": "[1]; [7]", "value": 26.1, "unit": "%"}, {"measurement": "number of patients with a severe exacerbation", "setting": "[1]; [7]", "value": 276}, {"measurement": "% of patients with a severe exacerbation", "setting": "[1]; [8]", "value": 26.2, "unit": "%"}, {"measurement": "number of patients with a severe exacerbation", "setting": "[1]; [8]", "value": 266}, {"measurement": "severe exacerbations requiring ED or urgent care visits (number)", "setting": "[1]; per treatment arm", "value": 66}, {"measurement": "severe exacerbations requiring hospitalization (number)", "setting": "[1]; per treatment arm", "value": 17}, {"measurement": "responders (onset of effect)", "setting": "[2]; Day 1, 15% improvement in FEV1 within 30 minutes", "value": 42.9, "unit": "%"}, {"measurement": "Median time to onset", "setting": "[2]; Day 1, 15% improvement in FEV1 within 30 minutes, responders", "value": 9.5, "unit": "min"}, {"measurement": "Median duration of effect", "setting": "[2]; Day 1, responders", "value": 168.2, "unit": "min"}, {"measurement": "percentages of ACQ-7 responders", "setting": "[2]; Week 12, ≥0.5-point reduction from baseline", "value": 47.2, "unit": "%"}, {"measurement": "bronchodilation with repeated use over 1-4 weeks", "setting": "[2]; compared with placebo", "value": "no difference"}, {"measurement": "Change from baseline in FEV1 AUC0-6 over 12 weeks, LSM", "setting": "[2]; full analysis set ≥12 years", "value": 157.2, "unit": "vs mL"}, {"measurement": "Change from baseline in trough FEV1 over 12 weeks, LSM", "setting": "[2]; full analysis set ≥12 years", "value": 2.7, "unit": "mL"}, {"measurement": "Change from baseline in FEV1 AUC0-6 over 12 weeks, difference in LSM", "setting": "[2]; [9]", "value": 60.5, "unit": "mL"}, {"measurement": "frequency of SAEs, including deaths", "setting": "[3]", "value": 4.5, "unit": "%"}, {"measurement": "Asthma, %", "setting": "[4]; [10]", "value": 3.3, "unit": "%"}, {"measurement": "Back pain, %", "setting": "[4]; [10]", "value": 1.9, "unit": "%"}, {"measurement": "Bronchitis, %", "setting": "[4]; [10]", "value": 2.6, "unit": "%"}, {"measurement": "COVID-19, %", "setting": "[4]; [10]", "value": 4.4, "unit": "%"}, {"measurement": "Headache, %", "setting": "[4]; [10]", "value": 4.7, "unit": "%"}, {"measurement": "Hypertension, %", "setting": "[4]; [10]", "value": 2.5, "unit": "%"}, {"measurement": "Influenza, %", "setting": "[4]; [10]", "value": 1.3, "unit": "%"}, {"measurement": "Nasopharyngitis, %", "setting": "[4]; [10]", "value": 5.1, "unit": "%"}, {"measurement": "Sinusitis, %", "setting": "[4]; [10]", "value": 2.3, "unit": "%"}, {"measurement": "Upper respiratory tract infection, %", "setting": "[4]; [10]", "value": 2.5, "unit": "%"}, {"measurement": "Patients with any AE, %", "setting": "[4]; Table 1", "value": 46.4, "unit": "%"}, {"measurement": "frequency of AEs leading to discontinuation of treatment", "setting": "[4]; human, in vivo", "value": 0.9, "unit": "%"}, {"measurement": "frequency of inhaled glucocorticoid-associated adverse events", "setting": "[4]; human, in vivo", "value": 1.3, "unit": "%"}, {"measurement": "deaths (number)", "setting": "[4]; no deaths considered treatment-related", "value": 1}, {"measurement": "frequency of any AE", "setting": "[4]; randomized treatment groups", "value": 46.4, "unit": "%"}, {"measurement": "dysphonia", "setting": "[4]; [11]", "value": 0.4, "unit": "%"}, {"measurement": "oral candidiasis", "setting": "[4]; [11]", "value": 0.5, "unit": "%"}, {"measurement": "oropharyngeal candidiasis", "setting": "[4]; [11]", "value": 0.1, "unit": "%"}]}, {"smiles": "CCCC1O[C@@H]2C[C@H]3[C@@H]4CCC5=CC(=O)C=C[C@]5(C)[C@H]4[C@@H](O)C[C@]3(C)[C@]2(C(=O)CO)O1", "note": "(mixture of isomers) [budesonide 160 μg, (RS)-11β,21-dihydroxy-16α,17α-(butylidenebis(oxy)) pregna-1,4-diene-3,20-dione]", "values": [{"measurement": "Change from baseline in FEV1 AUC0-6 over 12 weeks, LSM", "setting": "[2]; full analysis set ≥12 years", "value": 178.0, "unit": "mL"}, {"measurement": "Change from baseline in trough FEV1 over 12 weeks, LSM", "setting": "[2]; full analysis set ≥12 years", "value": 108.9, "unit": "vs mL"}, {"measurement": "Change from baseline in trough FEV1 over 12 weeks, difference in LSM", "setting": "[2]; [9]", "value": 73.3, "unit": "mL"}]}]}
